Measured values: paper PMC4890880 (ACS infectious diseases, 2016)
Structures can show the parent of a compound that is named as a salt. Where two headings read alike, the source gives them in different places.

Tests used:
[1] = system: P. falciparum 3D7 parasites; assay: Asexual erythrocytic-stage SYBR Green I proliferation assay, 1536-well; format: cell-based, Plasmodium falciparum
[2] = system: Plasmodium berghei (Pb-Luc) exoerythrocytic-stage parasites; assay: microbe, parasite or virus in culture; details: for inhibition at 10 µM: read-out: PbLuc max inhibition (%) @ 10 uM
[3] = system: Pb-Luc exoerythrocytic-stage parasites in Huh7.5.1 cells; assay: Pb-Luc time of action assay (modified 384-well luciferase assay); details: Plasmodium berghei
[4] = system: Plasmodium berghei (Pb-Luc) exoerythrocytic-stage parasites
[5] = system: P. falciparum Dd2 erythrocytic stage; assay: Dd2 erythrocytic-stage assay (SYBR Green) for DOS compounds; details: read-out: Erythrocytic-stage (Pf Dd2) IC50; Figure 4b
HepG2-A16-CD81EGFP cells [6] = system: HepG2-A16-CD81EGFP cells
HepG2-A16-CD81EGFP cells [7] = assay: cells; details: Homo sapiens; for IC50: HepG2, read-out: Tox IC50; for inhibition at 10 µM: HepG2, read-out: Tox max inhibition (%) @ 10 uM
[8] = system: Plasmodium cynomolgi exoerythrocytic-stage small (hypnozoites) and large (liver stage schizonts) parasites; assay: P. cynomolgi liver assay in primary hepatocytes; details: Plasmodium cynomolgi, Hepatocyte
[9] = target: QuantiLum Recombinant Luciferase (Photinus pyralis, UniProt P08659); assay: Bioluminescence quantification of compound luciferase inhibition; details: for Emax: read-out: LucInhib max inhibition
QuantiLum Recombinant Luciferase, sequence (P08659 whole entry): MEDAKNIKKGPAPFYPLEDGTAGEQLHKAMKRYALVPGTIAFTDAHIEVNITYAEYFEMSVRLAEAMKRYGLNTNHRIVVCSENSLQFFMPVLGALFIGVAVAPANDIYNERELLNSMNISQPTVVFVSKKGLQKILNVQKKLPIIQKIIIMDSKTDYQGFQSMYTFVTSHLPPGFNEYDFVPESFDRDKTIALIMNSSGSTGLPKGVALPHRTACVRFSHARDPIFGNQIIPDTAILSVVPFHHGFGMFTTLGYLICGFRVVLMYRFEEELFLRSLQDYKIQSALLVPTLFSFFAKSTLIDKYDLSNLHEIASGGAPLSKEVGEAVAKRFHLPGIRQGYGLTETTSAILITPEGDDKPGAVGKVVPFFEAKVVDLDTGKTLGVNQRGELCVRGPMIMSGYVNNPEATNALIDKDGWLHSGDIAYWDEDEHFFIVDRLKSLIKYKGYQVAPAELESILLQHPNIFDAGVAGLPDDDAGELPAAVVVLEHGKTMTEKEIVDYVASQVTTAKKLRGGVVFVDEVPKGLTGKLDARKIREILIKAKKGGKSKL

[10] = Plasmodium falciparum, 3D7, read-out: P. falciparum (blood) IC50, Table S1, validation set of 50 antimalarials
[11] = read-out: P. berghei (liver) IC50, Table S1, validation set of 50 antimalarials, Pb-Luc
[12] = Huh-7.5.1, read-out: Pb-Luc IC50, Treatment: 1
[13] = Huh-7.5.1, read-out: Pb-Luc IC50, Treatment: 2
[14] = Huh-7.5.1, read-out: Pb-Luc IC50, Treatment: 3
[15] = Huh-7.5.1, read-out: Pb-Luc IC50, Treatment: 4
[16] = Huh-7.5.1, read-out: Pb-Luc IC50, Treatment: 5
[17] = Huh-7.5.1, read-out: Pb-Luc IC50, Treatment: 6
[18] = read-out: Exoerythrocytic-stage Pb-Luc IC50, Figure 4b, second assay (value in parentheses)
[19] = HepG2, read-out: HepG2 Tox% @ 50 uM rep1
[20] = HepG2, read-out: HepG2 Tox% @ 50 uM rep2
[21] = read-out: Inhibition% @ 50 uM rep1
[22] = read-out: Inhibition% @ 50 uM rep2
[23] = read-out: PbLuc IC50, dose response, 1/3 dilutions, max conc. 10 or 50 uM, unit inferred
[24] = read-out: % inhibition normalized to untreated control, Large
[25] = read-out: % inhibition normalized to untreated control, Small
[26] = Plasmodium falciparum, 3D7, read-out: P. falciparum (blood) IC50
[27] = read-out: P. berghei (liver) IC50

O=C1C(O)=C([C@H]2CC[C@H](c3ccc(Cl)cc3)CC2)C(=O)c2ccccc21 [Atovaquone, reference compound]
IC50 [1, 10]: < 0.4 nM | IC50 [2, 11]: 0.25 nM | IC50 [3, 12]: 34 nM | IC50 [3, 13]: 2.8 nM | IC50 [3, 14]: 7.9 nM | IC50 [3, 15]: 1.6 nM | IC50 [3, 16]: 1.1 nM | IC50 [3, 17]: 0.9 nM

CCCNC(=O)N1[C@H](C#N)[C@H](c2ccc(C#Cc3cccc(F)c3)cc2)[C@H]1CO [BRD7539]
IC50 [4, 18]: 2 nM | IC50 ([4]; read-out: Pb-Luc IC50, Figure 4a, stereoisomers tested in dose response, listed as BRD9781/7539 series SSS): 2 nM | IC50 [5]: 10 nM

O=C(Nc1cccc(F)c1)N1CCCCN2[C@H](CO)[C@@H](c3ccc(C#Cc4cccnc4)cc3)[C@@H]2C1 [BRD47390]
IC50 ([4]; read-out: Exoerythrocytic-stage Pb-Luc IC50, Figure 4b, first assay): 360 nM | IC50 [4, 18]: 230 nM | CC50 (HepG2-A16-CD81EGFP cells [6]): > 10000 nM | IC50 [5]: 2580 nM

O=C(NCCN1CCCC1)c1cc(-c2ccc(CN3CCOCC3)cc2)nc2ccc(F)cc12 [DDD107498, reference compound]
IC50 [3, 12]: 2.2 nM | IC50 [3, 13]: 1.6 nM | IC50 [3, 14]: 0.8 nM | IC50 [3, 15]: 1.1 nM | IC50 [3, 16]: 0.9 nM | IC50 [3, 17]: 0.7 nM

CCN(CCO)CCCC(C)Nc1ccnc2cc(Cl)ccc12 (centres unmarked) [Hydroxychloroquine, reference compound]
IC50 [1, 10]: 13.9 nM | IC50 [2, 11]: > 12500 nM

CCCCN(CCCC)CC(O)c1cc(Cl)cc2c1-c1ccc(Cl)cc1/C2=C/c1ccc(Cl)cc1 (centres unmarked) [Lumefantrine, reference compound]
IC50 [1, 10]: 7.3 nM | IC50 [2, 11]: > 12500 nM

Cc1ccc(N2C3c4ccccc4N(S(=O)(=O)c4ccc(C)cc4)C2c2ccccc2N3S(=O)(=O)c2ccc(C)cc2)cc1 [MMV007160]
cytotoxicity at 50 µM (HepG2-A16-CD81EGFP cells [7]; [19]): -4.53% | cytotoxicity at 50 µM (HepG2-A16-CD81EGFP cells [7]; [20]): -10% | IC50 (HepG2-A16-CD81EGFP cells [7]): > 10000 nM | inhibition at 10 µM (HepG2-A16-CD81EGFP cells [7]): 10% | inhibition at 50 µM [2, 21]: 103% | inhibition at 50 µM [2, 22]: 105% | IC50 [2, 23]: 36.7 nM | inhibition at 10 µM [2]: 110% | inhibition at 0.1 µM [8, 24]: 17% | inhibition at 1 µM [8, 24]: 14% | inhibition at 10 µM [8, 24]: 0% | inhibition at 0.1 µM [8, 25]: 17% | inhibition at 1 µM [8, 25]: -25% | inhibition at 10 µM [8, 25]: -11% | IC50 [9]: > 20000 nM | Emax [9]: 14% | IC50 [3, 12]: 792 nM | IC50 [3, 13]: 285 nM | IC50 [3, 14]: 2880 nM | IC50 [3, 15]: 177 nM | IC50 [3, 16]: 198 nM | IC50 [3, 17]: 179 nM

COc1ccccc1CNC(=O)CCn1c(=O)[nH]c2ccccc2c1=O [MMV665916]
cytotoxicity at 50 µM (HepG2-A16-CD81EGFP cells [7]; [19]): -21% | cytotoxicity at 50 µM (HepG2-A16-CD81EGFP cells [7]; [20]): -23% | IC50 (HepG2-A16-CD81EGFP cells [7]): > 10000 nM | inhibition at 10 µM (HepG2-A16-CD81EGFP cells [7]): -2.14% | inhibition at 50 µM [2, 21]: 99% | inhibition at 50 µM [2, 22]: 99% | IC50 [2, 23]: 44.3 nM | inhibition at 10 µM [2]: 100% | inhibition at 0.1 µM [8, 24]: 6% | inhibition at 1 µM [8, 24]: 2% | inhibition at 10 µM [8, 24]: -13% | inhibition at 0.1 µM [8, 25]: 20% | inhibition at 1 µM [8, 25]: -13% | inhibition at 10 µM [8, 25]: -15% | IC50 [9]: > 20000 nM | Emax [9]: 15% | IC50 [3, 12]: 5730 nM | IC50 [3, 13]: 5780 nM | IC50 [3, 14]: 8160 nM | IC50 [3, 15]: 4290 nM | IC50 [3, 16]: 786 nM | IC50 [3, 17]: 370 nM

OC(c1cc(C(F)(F)F)nc2c(C(F)(F)F)cccc12)C1CCCCN1 (centres unmarked) [Mefloquine (+ RS), Mefloquine, reference compound]
IC50 ([1]; read-out: P. falciparum (blood) IC50, Table S1, validation set of 50 antimalarials): 16.6 nM | IC50 [2, 11]: 2330 nM

CN(C)c1ccc2nc3ccc(=[N+](C)C)cc-3sc2c1 [Methylene Blue, reference compound]
IC50 [1, 10]: 7980 nM | IC50 [2, 11]: 95.6 nM

CC(C)(N)CNC(=O)C[C@H]1CC[C@]2(CC1)OO[C@]1(O2)C2CC3CC(C2)CC1C3 [OZ277, reference compound]
IC50 [1, 10]: 2.3 nM | IC50 [2, 11]: 1640 nM

c1cc([C@H]2CC[C@]3(CC2)OO[C@]2(O3)C3CC4CC(C3)CC2C4)ccc1OCCN1CCOCC1 [OZ439, reference compound]
IC50 [1, 10]: 2.8 nM | IC50 [2, 11]: 5240 nM

CCN(CC)CCCC(C)Nc1cc(OC)cc2cccnc12 (centres unmarked) [Pamaquine, reference compound]
IC50 [1, 10]: > 10000 nM | IC50 [2, 11]: > 12500 nM

N=C(N)c1ccc(OCCCCCOc2ccc(C(=N)N)cc2)cc1 [Pentamidine, reference compound]
IC50 [1, 10]: 0.5 nM | IC50 [2, 11]: 286 nM

Clc1ccc2c(N3CCN(CCCN4CCN(c5ccnc6cc(Cl)ccc56)CC4)CC3)ccnc2c1 [Piperaquine, reference compound]
IC50 [1, 10]: 72 nM | IC50 [2, 11]: > 12500 nM

COc1cc(NC(C)CCCN)c2ncccc2c1 (centres unmarked) [Primaquine, reference compound]
IC50 [1, 26]: 695 nM | IC50 [2, 27]: 705 nM | inhibition at 0.1 µM [8, 24]: 1% | inhibition at 1 µM [8, 24]: 3% | inhibition at 10 µM [8, 24]: 13% | inhibition at 0.1 µM [8, 25]: 4% | inhibition at 1 µM [8, 25]: 19% | inhibition at 10 µM [8, 25]: 24%

[H]/N=C(\N/C(=N/[H])Nc1ccc(Cl)cc1)NC(C)C [Proguanil HCL, reference compound]
IC50 [1, 10]: 6240 nM | IC50 [2, 11]: 4560 nM

CCc1nc(N)nc(N)c1-c1ccc(Cl)cc1 [Pyrimethamine, reference compound]
IC50 [1, 10]: 19.9 nM | IC50 [2, 11]: 5.1 nM | IC50 [3, 12]: 122 nM | IC50 [3, 13]: 21 nM | IC50 [3, 14]: 252 nM | IC50 [3, 15]: 19.7 nM | IC50 [3, 16]: 18.8 nM | IC50 [3, 17]: 18.9 nM

COc1ccc2nc3cc(Cl)ccc3c(Nc3cc(CN4CCCC4)c(O)c(CN4CCCC4)c3)c2n1 [Pyronaridine, reference compound]
IC50 [1, 10]: 9.6 nM | IC50 [2, 11]: 6790 nM

C=C[C@H]1C[N@@]2CC[C@H]1C[C@@H]2[C@@H](O)c1ccnc2ccc(OC)cc12 [Quinidine, reference compound]
IC50 [1, 10]: 2.9 nM | IC50 [2, 11]: > 12500 nM

C=C[C@H]1C[N@@]2CC[C@H]1C[C@H]2[C@H](O)c1ccnc2ccc(OC)cc12 [Quinine sulfate dihydrate, reference compound]
IC50 [1, 10]: 12.3 nM | IC50 [2, 11]: > 12500 nM

Cc1cc2nc3c(=O)[nH]c(=O)nc-3n(C[C@H](O)[C@H](O)[C@H](O)CO)c2cc1C [Riboflavin, reference compound]
IC50 [1, 10]: > 62500 nM | IC50 [2, 11]: > 12500 nM

Nc1ccc(S(=O)(=O)Nc2ncccn2)cc1 [Sulfadiazine, reference compound]
IC50 [1, 10]: > 62500 nM | IC50 [2, 27]: 16 nM

COc1ncnc(NS(=O)(=O)c2ccc(N)cc2)c1OC [Sulfadoxine, reference compound]
IC50 [1, 10]: > 62500 nM | IC50 [2, 11]: 74 nM

COc1cc(C)c2c(Oc3cccc(C(F)(F)F)c3)c(OC)cc(NC(C)CCCN)c2n1 (centres unmarked) [Tafenoquine, reference compound]
IC50 [1, 10]: 2820 nM | IC50 [2, 11]: 5860 nM

CN(C)[C@@H]1C(O)=C(C(N)=O)C(=O)[C@@]2(O)C(O)=C3C(=O)c4c(O)cccc4[C@@](C)(O)[C@H]3C[C@@H]12 [Tetracycline, reference compound]
IC50 [1, 10]: > 10000 nM | IC50 [2, 27]: > 12500 nM

C=C(NC(=O)C(=C)NC(=O)c1csc(C2=N[C@@H]3c4csc(n4)[C@H]4NC(=O)c5csc(n5)[C@H]([C@](C)(O)[C@@H](C)O)NC(=O)[C@H]5CSC(=N5)/C(=C/C)NC(=O)[C@H]([C@@H](C)O)NC(=O)c5csc(n5)[C@]3(CC2)NC(=O)[C@H](C)NC(=O)C(=C)NC(=O)[C@H](C)NC(=O)[C@H]([C@@H](C)CC)N[C@@H]2C=Cc3c([C@H](C)O)cc(nc3[C@H]2O)C(=O)O[C@@H]4C)n1)C(N)=O [Thiostrepton, reference compound]
IC50 [1, 26]: 1910 nM | IC50 [2, 27]: 3130 nM
